Measurements as given in patent US9725445B2, “Cycloalkyl nitrile pyrazolo pyridones as Janus kinase inhibitors” (Merck Sharp & Dohme Corp., priority 2013, dated 2017).

Target: JAK1 (Homo sapiens (Human), UniProt P23458)
Test: Jak biochemical HTRF assay, JAK1
Details: HTRF biochemical assay, recombinant GST-tagged catalytic domain; read-out: JAK1 IC50
Method: Jak Biochemical HTRF Assay Protocol
The ability of compounds to inhibit the activity of JAK1, JAK2, JAK3, and Tyk2 was measured using a recombinant purified GST-tagged catalytic domain for each enzyme (Invitrogen JAK1 #M4290, JAK2 #M4290, JAK3 #M4290, Tyk2 #M4290) in an HTRF format biochemical assay. […] The basic assay protocol is as follows: First, 250 nL of diluted compounds in DMSO were dispensed into the wells of a dry 384-well Black plate (Greiner #781076) using a Labcyte Echo 555 acoustic dispenser. Subsequent reagent additions employed an Agilent Bravo. […] After equilibration, 2 μL of 10×ATP in 1× assay buffer was added to initiate the kinase reaction and the plates were shaken and then incubated at room temperature for 120 minutes. […] Plates were shaken and centrifuged and then incubated 60 minutes at room temperature and then read on a Perkin Elmer Envision (λex=337 nm, λem=665 and 615 nm, TRF delay time=20 μs). HTRF signal=10,000*665 nm reading/615 nm reading. After normalization to untreated controls, the percent inhibition of the HTRF signal at each compound concentration was calculated. The plot of percent inhibition versus the log of compound concentration was fit with a 4-parameter dose response equation to calculate IC50 values.
Final Reaction Conditions were:
Examples of the instant invention were evaluated in JAK1 and JAK2 in vitro binding assays.

JAK1, sequence (P23458 875-1153): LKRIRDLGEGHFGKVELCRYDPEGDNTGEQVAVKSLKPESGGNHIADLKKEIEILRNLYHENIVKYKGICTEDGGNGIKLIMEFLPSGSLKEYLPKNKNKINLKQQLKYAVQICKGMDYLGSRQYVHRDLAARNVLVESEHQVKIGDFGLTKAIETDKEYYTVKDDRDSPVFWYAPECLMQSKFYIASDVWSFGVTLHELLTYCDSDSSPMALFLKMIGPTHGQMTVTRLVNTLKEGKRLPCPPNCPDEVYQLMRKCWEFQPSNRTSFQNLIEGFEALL

IC50 | Structure (SMILES)
520 pM | N#C[C@H]1CCCC[C@@H]1n1nc(Nc2ccc3c(c2)CN(CC2CC2)C3)c2c(=O)[nH]ccc21 [Example 3-77, (1S,2S)-2-(3-{[2-(cyclopropylmethyl)-2,3-dihydro-1H-isoindol-5-yl]amino}-4-oxo-4,5-dihydro-1H-pyrazolo[4,3-c]pyridin-1-yl)cyclohexanecarbonitrile]
250 pM | CC(C)C(c1ccc(Nc2nn([C@H]3CCCC[C@@H]3C#N)c3cc[nH]c(=O)c23)cc1)n1nccn1 (single isomer, unassigned) [Example 15-31, (1S,2S)-2-[3-({4-[(1R or 1S)-2-methyl-1-(2H-1,2,3-triazol-2-yl)propyl]phenyl}amino)-4-oxo-4,5-dihydro-1H-pyrazolo[4,3-c]pyridin-1-yl]cyclohexanecarbonitrile]
2500 pM | N#C[C@@H]1CCCC[C@@H]1n1nc(Nc2ccc(F)cc2)c2c(=O)[nH]ccc21 (racemic) [Example 1-1, (cis)-2-{3-[(4-Fluorophenyl)amino]-4-oxo-4,5-dihydro-1H-pyrazolo[4,3-c]pyridin-1-yl}cyclohexanecarbonitrile]
840 pM | CC(C)(C)N1Cc2cc(Nc3nn([C@H]4CCCCC[C@H]4C#N)c4cc[nH]c(=O)c34)ccc2S1(=O)=O (single isomer, unassigned) [Example 3-178, (1R,2S or 1S,2R)-2-{3-[(2-tert-butyl-1,1-dioxido-2,3-dihydro-1,2-benzisothiazol-5-yl)amino]-4-oxo-4,5-dihydro-1H-pyrazolo[4,3-c]pyridin-1-yl}cycloheptanecarbonitrile]
150 pM | CC(c1ccc(Nc2nn([C@H]3CCCC[C@@H]3C#N)c3cc[nH]c(=O)c23)cc1)n1ccnn1 (single isomer, unassigned) [Example 15-42, (1S,2S)-2-[4-oxo-3-({4-[(1S or 1R)-1-(1H-1,2,3-triazol-1-yl)ethyl]phenyl}amino)-4,5-dihydro-1H-pyrazolo[4,3-c]pyridin-1-yl]cyclohexanecarbonitrile]
110 pM | CN(C)C(c1ccc(Nc2nn([C@H]3CCCC[C@@H]3C#N)c3cc[nH]c(=O)c23)cc1)C(F)(F)F (single isomer, unassigned) [Example 9-4, (1S,2S)-2-(3-(4-((R or S)-1-(Dimethylamino)-2,2,2-trifluoroethyl)phenylamino)-4-oxo-4,5-dihydropyrazolo[4,3-c]pyridin-1-yl)cyclohexanecarbonitrile]
9800 pM | N#C[C@@H]1C[C@@H](O)CC[C@H]1n1nc(Nc2ccc(C(F)(F)F)cc2)c2c(=O)[nH]ccc21 [Example 3-89, (1R,2R,5S)-5-hydroxy-2-(4-oxo-3-((4-(trifluoromethyl)phenyl)amino)-4,5-dihydro-1H-pyrazolo[4,3-c]pyridin-1-yl)cyclohexanecarbonitrile]
460 pM | Cc1cc(Nc2nn([C@H]3CCCC[C@@H]3C#N)c3cc[nH]c(=O)c23)ccc1C(C(C)C)n1nccn1 (single isomer, unassigned) [Example 15-36, (1S,2S)-2-[3-({3-methyl-4-[(1R or 1S)-2-methyl-1-(2H-1,2,3-triazol-2-yl)propyl]phenyl}amino)-4-oxo-4,5-dihydro-1H-pyrazolo[4,3-c]pyridin-1-yl]cyclohexanecarbonitrile]
220 pM | CC(C)(C)OC(=O)C1CCC(N2Cc3cc(Nc4nn([C@H]5CCCC[C@@H]5C#N)c5cc[nH]c(=O)c45)ccc3C2=O)CC1 (single isomer, unassigned) [Example 3-135, (cis or trans)tert-butyl 4-(5-((1-((1S,2S)-2-cyanocyclohexyl)-4-oxo-4,5-dihydro-1H-pyrazolo[4,3-c]pyridin-3-yl)amino)-1-oxoisoindolin-2-yl)cyclohexanecarboxylate]
57 pM | CC(C)N1Cc2cc(Nc3nn([C@H]4CCCC[C@@H]4C#N)c4cc[nH]c(=O)c34)ccc2C1=O [Example 3-153, (1S,2S)-2-(3-{[2-(1-methylethyl)-1-oxo-2,3-dihydro-1H-isoindol-5-yl]amino}-4-oxo-4,5-dihydro-1H-pyrazolo[4,3-c]pyridin-1-yl)cyclohexanecarbonitrile]
480 pM | CC(c1ccc(Nc2nn([C@H]3CCCC[C@@H]3C#N)c3cc[nH]c(=O)c23)cc1)n1nccn1 (single isomer, unassigned) [Example 15-22, (1S,2S)-2-[4-oxo-3-({4-[(1R or 1S)-1-(2H-1,2,3-triazol-2-yl)ethyl]phenyl}amino)-4,5-dihydro-1H-pyrazolo[4,3-c]pyridin-1-yl]cyclohexanecarbonitrile]
3000 pM | C[C@H](N[C@@H]1CC[C@H](n2nc(Nc3ccc(C(F)(F)F)cc3)c3c(=O)[nH]ccc32)[C@@H](C#N)C1)C1CC1 [Example 5-11, (1S,2S,5R)-5-(((S)-1-cyclopropylethyl)amino)-2-(4-oxo-3-((4-(trifluoromethyl)phenyl)amino)-4,5-dihydro-1H-pyrazolo[4,3-c]pyridin-1-yl)cyclohexanecarbonitrile]
310 pM | N#C[C@H]1CCCC[C@@H]1n1nc(Nc2cccc(CNC(=O)c3cnco3)c2)c2c(=O)[nH]ccc21 [Example 3-12, N-[3-({1-[(1S,2S)-2-cyanocyclohexyl]-4-oxo-4,5-dihydro-1H-pyrazolo[4,3-c]pyridin-3-yl}amino)benzyl]-1,3-oxazole-5-carboxamide]
1200 pM | Cc1cc(Nc2nn([C@H]3CCCC[C@@H]3C#N)c3cc[nH]c(=O)c23)ccc1C(C(C)C)n1nccn1 (single isomer, unassigned) [Example 15-35, (1S,2S)-2-[3-({3-methyl-4-[(1S or 1R)-2-methyl-1-(2H-1,2,3-triazol-2-yl)propyl]phenyl}amino)-4-oxo-4,5-dihydro-1H-pyrazolo[4,3-c]pyridin-1-yl]cyclohexanecarbonitrile]
77 pM | N#C[C@H]1CCC[C@@H]1n1nc(Nc2ccc(C3(C(F)(F)F)CCCCN3)cc2)c2c(=O)[nH]ccc21 (single isomer, unassigned) [Example 15-72, (1S,2S)-2-[4-oxo-3-({4-[(2R or 2S)-2-(trifluoromethyl)piperidin-2-yl]phenyl}amino)-4,5-dihydro-1H-pyrazolo[4,3-c]pyridin-1-yl]cyclopentanecarbonitrile]
5300 pM | CC(C)OC(=O)C(C)(C)C(O)(c1ccc(Nc2nn([C@H]3CCCC[C@@H]3C#N)c3cc[nH]c(=O)c23)cc1)C(F)(F)F (single isomer, unassigned) [Example 3-119, (R or S) Isopropyl 3-(4-((1-((1S,2S)-2-cyanocyclohexyl)-4-oxo-4,5-dihydro-1H-pyrazolo[4,3-c]pyridin-3-yl)amino)phenyl)-4,4,4-trifluoro-3-hydroxy-2,2-dimethylbutanoate]
390 pM | CC(c1ccc(Nc2nn([C@H]3CCCC[C@@H]3C#N)c3cc[nH]c(=O)c23)cc1)n1nccn1 (single isomer, unassigned) [Example 15-21, (1S,2S)-2-[4-oxo-3-({4-[(1S or 1R)-1-(2H-1,2,3-triazol-2-yl)ethyl]phenyl}amino)-4,5-dihydro-1H-pyrazolo[4,3-c]pyridin-1-yl]cyclohexanecarbonitrile]
120 pM | CC(C)(C)S(=O)(=O)c1ccc(Nc2nn([C@H]3CCCC[C@@H]3C#N)c3cc[nH]c(=O)c23)cc1 [Example 3-143, (1S,2S)-2-(3-{[4-(tert-butylsulfonyl)phenyl]amino}-4-oxo-4,5-dihydro-1H-pyrazolo[4,3-c]pyridin-1-yl)cyclohexanecarbonitrile]
97000 pM | C[C@H](N[C@H]1CC[C@@H](n2nc(Nc3ccc(C(F)(F)F)cc3)c3c(=O)[nH]ccc32)[C@H](C#N)C1)C1CC1 [Example 5-13, (1R,2R,5S)-5-(((S)-1-cyclopropylethyl)amino)-2-(4-oxo-3-((4-(trifluoromethyl)phenyl)amino)-4,5-dihydro-1H-pyrazolo[4,3-c]pyridin-1-yl)cyclohexanecarbonitrile]
490 pM | CC(C)(C)OC(=O)CCN1Cc2ccc(Nc3nn([C@H]4CCCC[C@@H]4C#N)c4cc[nH]c(=O)c34)cc2C1 [Example 3-163, tert-butyl 3-[5-({1-[(1S,2S)-2-cyanocyclohexyl]-4-oxo-4,5-dihydro-1H-pyrazolo[4,3-c]pyridin-3-yl}amino)-1,3-dihydro-2H-isoindol-2-yl]propanoate]
230 pM | N#C[C@H]1CCCC[C@@H]1n1nc(Nc2ccc3c(c2)CC2(CC2)C3(O)C(F)(F)F)c2c(=O)[nH]ccc21 (single isomer, unassigned) [Example 3-124, (1S,2S)-2-(3-(((R or S)-1′-hydroxy-1′-(trifluoromethyl)-1′,3′-dihydrospiro[cyclopropane-1,2′-inden]-5′-yl)amino)-4-oxo-4,5-dihydro-1H-pyrazolo[4,3-c]pyridin-1-yl)cyclohexanecarbonitrile]
610 pM | CC1NCc2cc(Nc3nn([C@H]4CCCC[C@@H]4C#N)c4cc[nH]c(=O)c34)ccc21 (single isomer, unassigned) [Example 12-5, (1S,2S)-2-(3-{[(1R or 1S)-1-methyl-2,3-dihydro-1H-isoindol-5-yl]amino}-4-oxo-4,5-dihydro-1H-pyrazolo[4,3-c]pyridin-1-yl)cyclohexanecarbonitrile]
